Laboratory results: ChEMBL document CHEMBL3885881, “DrugMatrix”

Species on record: Rattus norvegicus
Assay: DrugMatrix - Regimen: Daily Repeat
Format: toxicity, organism-based, Sprague-Dawley
Parameters: regimen Daily Repeat, gender Male, age 6-8 weeks
Settings: in vivo, po, route oral GAVAGE, […]; for POTASSIUM / SODIUM / TOTAL BILIRUBIN / TOTAL PROTEIN / URIC ACID / ALANINE AMINOTRANSFERASE / ALBUMIN / ALKALINE PHOSPHATASE / ASPARTATE AMINOTRANSFERASE / BLOOD UREA NITROGEN / CARBON DIOXIDE / CHLORIDE / CHOLESTEROL / CREATINE PHOSPHOKINASE / CREATININE / GLUCOSE / LACTATE DEHYDROGENASE / LIPASE / PHOSPHORUS: tissue Plasma; for ABSOLUTE BASOPHIL / ABSOLUTE EOSINOPHIL / ABSOLUTE LYMPHOCYTE / ABSOLUTE MONOCYTE / ABSOLUTE SEGMENTED NEUTROPHIL / BASOPHIL / EOSINOPHIL / ERYTHROCYTE COUNT / HEMATOCRIT / HEMOGLOBIN / LEUKOCYTE COUNT / LYMPHOCYTE / MEAN CORPUSCULAR HEMOGLOBIN / MEAN CORPUSCULAR HEMOGLOBIN CONCENTRATION / MEAN CORPUSCULAR VOLUME / MONOCYTE / NEUTROPHIL / NUCLEATED RED BLOOD CELLS / PLATELET COUNT: tissue Blood
[1] = 9 mg/kg, 72 h, dose level M1, time 3 day
[2] = 9 mg/kg, 120 h, dose level M1, time 5 day
[3] = 36 mg/kg, 72 h, dose level High, time 3 day
[4] = 36 mg/kg, 120 h, dose level High, time 5 day

SMILES: CS(=O)(=O)OCCCCOS(C)(=O)=O [BUSULFAN]
- POTASSIUM [1]: 6.13 MEQ/L
- SODIUM [1]: 143.63 MEQ/L
- TOTAL BILIRUBIN [1]: 0.13 mg/dL
- TOTAL PROTEIN [1]: 5.73 G/DL
- URIC ACID [1]: 1.27 mg/dL
- ABSOLUTE BASOPHIL [2]: 0 CELLS/uL
- ABSOLUTE EOSINOPHIL [2]: 0 CELLS/uL
- ABSOLUTE LYMPHOCYTE [2]: 6323.33 CELLS/uL
- ABSOLUTE MONOCYTE [2]: 60 CELLS/uL
- ABSOLUTE SEGMENTED NEUTROPHIL [2]: 150 CELLS/uL
- BASOPHIL [2]: 0%
- EOSINOPHIL [2]: 0%
- ERYTHROCYTE COUNT [2]: 6.03 x10E6/uL
- HEMATOCRIT [2]: 36.67%
- HEMOGLOBIN [2]: 14.47 G/DL
- LEUKOCYTE COUNT [2]: 6.53 x10E3/uL
- LYMPHOCYTE [2]: 97%
- MEAN CORPUSCULAR HEMOGLOBIN [2]: 24.03 pg
- MEAN CORPUSCULAR HEMOGLOBIN CONCENTRATION [2]: 39.43 G/DL
- MEAN CORPUSCULAR VOLUME [2]: 60.83 fL
- MONOCYTE [2]: 0.67%
- NEUTROPHIL [2]: 2.33%
- NUCLEATED RED BLOOD CELLS [2]: 0 /100WBC
- PLATELET COUNT [2]: 1101.33 x10E3/uL
- ALANINE AMINOTRANSFERASE [2]: 48.67 u/L
- ALBUMIN [2]: 4.4 G/DL
- ALKALINE PHOSPHATASE [2]: 322 u/L
- ASPARTATE AMINOTRANSFERASE [2]: 84.67 u/L
- BLOOD UREA NITROGEN [2]: 8.33 mg/dL
- CARBON DIOXIDE [2]: 33 mmol/L
- CHLORIDE [2]: 99.33 MEQ/L
- CHOLESTEROL [2]: 81.67 mg/dL
- CREATINE PHOSPHOKINASE [2]: 189.67 u/L
- CREATININE [2]: 0.3 mg/dL
- GLUCOSE [2]: 133.33 mg/dL
- LACTATE DEHYDROGENASE [2]: 120 u/L
- LIPASE [2]: 11.33 u/L
- PHOSPHORUS [2]: 9.3 mg/dL
- POTASSIUM [2]: 6.08 MEQ/L
- SODIUM [2]: 145.27 MEQ/L
- TOTAL BILIRUBIN [2]: 0.13 mg/dL
- TOTAL PROTEIN [2]: 6.33 G/DL
- URIC ACID [2]: 0.77 mg/dL
- ABSOLUTE BASOPHIL [3]: 0 CELLS/uL
- ABSOLUTE EOSINOPHIL [3]: 0 CELLS/uL
- ABSOLUTE LYMPHOCYTE [3]: 7116 CELLS/uL
- ABSOLUTE MONOCYTE [3]: 0 CELLS/uL
- ABSOLUTE SEGMENTED NEUTROPHIL [3]: 417.33 CELLS/uL
- BASOPHIL [3]: 0%
- EOSINOPHIL [3]: 0%
- ERYTHROCYTE COUNT [3]: 5.94 x10E6/uL
- HEMATOCRIT [3]: 37.13%
- HEMOGLOBIN [3]: 14.47 G/DL
- LEUKOCYTE COUNT [3]: 7.53 x10E3/uL
- LYMPHOCYTE [3]: 94.33%
- MEAN CORPUSCULAR HEMOGLOBIN [3]: 24.5 pg
- MEAN CORPUSCULAR HEMOGLOBIN CONCENTRATION [3]: 39.07 G/DL
- MEAN CORPUSCULAR VOLUME [3]: 62.67 fL
- MONOCYTE [3]: 0%
- NEUTROPHIL [3]: 5.67%
- NUCLEATED RED BLOOD CELLS [3]: 0 /100WBC
- PLATELET COUNT [3]: 1000.33 x10E3/uL
- ALANINE AMINOTRANSFERASE [3]: 45.33 u/L
- ALBUMIN [3]: 4.4 G/DL
- ALKALINE PHOSPHATASE [3]: 316.33 u/L
- ASPARTATE AMINOTRANSFERASE [3]: 72.67 u/L
- BLOOD UREA NITROGEN [3]: 12 mg/dL
- CARBON DIOXIDE [3]: 33.33 mmol/L
- CHLORIDE [3]: 101.5 MEQ/L
- CHOLESTEROL [3]: 110.33 mg/dL
- CREATINE PHOSPHOKINASE [3]: 312.33 u/L
- CREATININE [3]: 0.1 mg/dL
- GLUCOSE [3]: 170.33 mg/dL
- LACTATE DEHYDROGENASE [3]: 86.33 u/L
- LIPASE [3]: 12.33 u/L
- PHOSPHORUS [3]: 10.73 mg/dL
- POTASSIUM [3]: 5.47 MEQ/L
- SODIUM [3]: 147.05 MEQ/L
- TOTAL BILIRUBIN [3]: 0.17 mg/dL
- TOTAL PROTEIN [3]: 6.3 G/DL
- URIC ACID [3]: 0.6 mg/dL
- ABSOLUTE BASOPHIL [4]: 0 CELLS/uL
- ABSOLUTE EOSINOPHIL [4]: 0 CELLS/uL
- ABSOLUTE LYMPHOCYTE [4]: 3639 CELLS/uL
- ABSOLUTE MONOCYTE [4]: 0 CELLS/uL
- ABSOLUTE SEGMENTED NEUTROPHIL [4]: 61 CELLS/uL
- BASOPHIL [4]: 0%
- EOSINOPHIL [4]: 0%
- ERYTHROCYTE COUNT [4]: 6.14 x10E6/uL
- HEMATOCRIT [4]: 38.4%
- HEMOGLOBIN [4]: 14.8 G/DL
- LEUKOCYTE COUNT [4]: 3.7 x10E3/uL
- LYMPHOCYTE [4]: 98.5%
- MEAN CORPUSCULAR HEMOGLOBIN [4]: 24.15 pg
- MEAN CORPUSCULAR HEMOGLOBIN CONCENTRATION [4]: 38.6 G/DL
- MEAN CORPUSCULAR VOLUME [4]: 62.55 fL
- MONOCYTE [4]: 0%
- NEUTROPHIL [4]: 1.5%
- NUCLEATED RED BLOOD CELLS [4]: 0 /100WBC
- PLATELET COUNT [4]: 1040 x10E3/uL
- ALANINE AMINOTRANSFERASE [4]: 36.5 u/L
- ALBUMIN [4]: 4.35 G/DL
- ALKALINE PHOSPHATASE [4]: 322.5 u/L
- ASPARTATE AMINOTRANSFERASE [4]: 72 u/L
- BLOOD UREA NITROGEN [4]: 7 mg/dL
- CARBON DIOXIDE [4]: 28 mmol/L
- CHLORIDE [4]: 100 MEQ/L
- CHOLESTEROL [4]: 78 mg/dL
- CREATINE PHOSPHOKINASE [4]: 216 u/L
- CREATININE [4]: 0.13 mg/dL
- GLUCOSE [4]: 154 mg/dL
- LACTATE DEHYDROGENASE [4]: 72 u/L
- LIPASE [4]: 10.5 u/L
- PHOSPHORUS [4]: 9.25 mg/dL
- POTASSIUM [4]: 5.75 MEQ/L
- SODIUM [4]: 145.2 MEQ/L
- TOTAL BILIRUBIN [4]: 0.1 mg/dL
- TOTAL PROTEIN [4]: 6.35 G/DL
- URIC ACID [4]: 0.5 mg/dL
